{
  "source": "patent US20130028986A1",
  "about": "“Pharmaceutical Compositions” (SABAREP LIMITED, priority 2005, published 2013)",
  "test_system": "skin or epidermal barrier (skin treated with clobetasol propionate)",
  "assay": "Topical corticosteroid induced protease skin barrier damage model (tape stripping, TEWL)",
  "assay_type": "in vivo, human (volunteer)",
  "settings": "for rate of TEWL increase during tape stripping: compared to control and vehicle alone, up to 20 tape strips",
  "source_text": "Topical glucocorticoids (corticosteroids), which are used in the treatment of atopic dermatitis, damage the skin barrier and cause changes to the lipids within the epidermis, and a reduction in the number corneodesmosomes holding the corneocytes together. […] Therefore, skin that has been pretreated with gluticocorticoids can provide a good model in which to test the efficacy of compounds for their capacity to restore the skin or epidermal barrier and to be useful in the treatment of dermato logical conditions that compromise the skin or epidermal barrier, particularly those involving an abnormal decrease in the cell-to-cell adhesion between epithelial cells (in particular between corneocytes) such as atopic eczema or dermatitis, sebarrhoeic eczema, irritant contact dermatitis, allergic contact dermatitis and other sensitive skin conditions. […] The techniques disclosed by Kao et al. provide a measure of barrier integrity and corneocyte cohesion (any increases in TEWL are indicative of a loss in barrier function and increases in total protein removed by the skin strips are the result of a loss of intercellular cohesion, and vice versa). The methods employed by Kao were therefore used in the following examples. The TEWL measurements were taken using an “Aquaflux AF 102” electrolytic water analyser (Available from Biox Systems Ltd, Southwark Campus, 103 Borough Road, London SE1 0AA, UK) in the manner described in Berg et al. (Berg, E. P. Pascut, F. C, Ciortea, L. L, O'Driscoll, D., Xiao, P. and Imhof, R. E. (2002), Aquaflux—A new instrument for water vapour flux density measurement Proceedings of the 4th International Symposium on Humidity and Moisture, Centre for Measurement Standards, ITRI, RoC, ISBN 957-774-423-0, pp. 288-95) and Ciortea et al. (Ciortea, L. I. O'Driscoll, D., Berg, E. P., Xiao, P., Pascut, F. C. and Imhof, R. E. (2002), New methods for measuring water desorption and vapour permeation rates in membranes Proceedings of the 4th International Symposium on Humidity and Moisture, Centre for Measurement Standards, ITRI, RoC, ISBN 957-774-423-0, pp. 288-95).\nMicrofine zinc oxide (available from BASF Aktiengesellschaft, 67056 Ludwigshafen, Germany, under the trade mark Z-Cote®, item no. 55082355, or from Univar, Basildon, Essex, UK, as item no. 76011010; see also: Z-Cote®, BASF; Mitchnick, M. A., Fairhurst, D. and Pinnell, S. R. (1999) J Am Acad Dermatol 40: 85-90) (25%) in light liquid paraffin was applied twice a day to a volunteer's left forearm for 4 days; their right forearm received light liquid paraffin only. One fingertip unit of clobetasol propionate (a potent corticosteroid) was then applied twice a day to the study areas for 3 days. TEWL was then measured at base line and following the removal of 4, 8, 12 and 16 tape strips.\nMicrofine zinc oxide, 5 and 15%, in light liquid paraffin was applied twice a day to a volunteer's the left bicep and left forearm for 4 days, respectively; the right bicep received light liquid paraffin only. […] TEWL was then measured at base line and following the removal of 4, 8, 12 and 16 tape strips. […]\nFour finger dips of 12 mg/ml zinc stearate in light liquid paraffin were applied to the right forearm for 9 days, twice daily. […] On day 10, TEWL was measured at base line following the removal of 4, 8, 12 and 16 tape strips. […]",
  "data": [
    {"molecule": "CCCCCCCCCCCCCCCC(=O)O", "note": "[palmitic acid, Hexadecanoic acid]", "values": [
      {"measurement": "rate of TEWL increase during tape stripping", "setting": "Example Id, FIG. 5, 12 mg/ml in PEG400/ethanol (7:3) 6 times a day for 4 days, then clobetasol propionate 3 times over 24 hours", "value": "significantly reduced"}
    ]},
    {"molecule": "zinc stearate", "values": [
      {"measurement": "protection against the effects of clobetasol (TEWL at base line and after 4, 8, 12 and 16 tape strips)", "setting": "Example Ic, FIG. 4, 12 mg/ml in light liquid paraffin twice daily for 9 days on right forearm, clobetasol propionate twice a day on days 6 to 9, TEWL on day 10", "value": "can also protect against the effects of clobetasol"}
    ]},
    {"molecule": "[O-2].[Zn+2]", "note": "[Microfine zinc oxide, zinc oxide]", "values": [
      {"measurement": "reduction in TEWL following the removal of 16 tape strips", "setting": "Example Ia, FIG. 2, 25% in light liquid paraffin twice a day for 4 days on left forearm, then clobetasol propionate twice a day for 3 days, compared with light liquid paraffin only", "value": 37.5, "unit": "%"},
      {"measurement": "protective effect (TEWL at base line and after 4, 8, 12 and 16 tape strips)", "setting": "Example Ib, FIG. 3, 5 and 15% in light liquid paraffin twice a day for 4 days, clobetasol propionate twice a day for 3 days, compared with light liquid paraffin only", "value": "dose-dependant response"},
      {"measurement": "rate of TEWL increase during tape stripping", "setting": "Example Ie, FIG. 6, zinc oxide 25% (alone or with 12 mg/ml palmitic acid) in PEG400/ethanol (7:3) 6 times a day for 4 days, clobetasol propionate 3 times over 48 hours", "value": "significantly reduced"}
    ]}
  ]
}
